This note sets out measurements from patent US4716162A, “Fused 5 ring heterocyclic compounds, their preparation, and their anti-arrhythmic and diuretic use” (Sankyo Company, Limited, priority 1984, dated 1987).

In brackets after ≈: the same amount, converted by molar mass. Counter-ions that a name gives are not always drawn.

In the first assay the test system is rats with ischemic brains. In words: Improvement of brain function: time until recovery of the righting reflex in rats with ischemic brains. In kind it is in vivo, male rats of the Wistar strain. The note with it: 10 mg/kg i.p. The procedure: A test for recovery of brain function was performed using rats with ischemic brains. The bilaterial carotid arteries of male rats of the Wistar strain were ligated under anesthesia with thiopental (50 mg/kg, intraperitoneally) and the test compounds and a 0.5% w/v carboxymethylcellulose solution (vehicle) were intraperitoneally administered at the same time. The time until recovery of the righting relex was measured to give an index of the brain function. […] The known compound, Pentoxifylline, was tested in the same way, for comparison.
With `O=C(O)[C@@H]1C=C2c3cc(Br)ccc3N3C(=O)C[C@H]4CC[C@@H]1[C@H]4[C@H]23` (relative stereo) [Compound No. 18], the “Ratio to Control (time until recovery of the righting reflex)” value worked out at 0.84.

The assay is the same for the next values; noted with them: 30 mg/kg i.p.
Consider `O=C(O)[C@@H]1C=C2c3cc(Br)ccc3N3C(=O)C[C@H]4CC[C@@H]1[C@H]4[C@H]23` (relative stereo) [Compound No. 18], for which the “Ratio to Control (time until recovery of the righting reflex)” value is 0.68.
Still for that read-out and setting: for `CC(=O)CCCCn1c(=O)c2c(ncn2C)n(C)c1=O` [Pentoxifylline, reference compound] the value was 0.82.

In another assay the test system is heart beat rate in the ventricle of mice placed in chloroform gas. Kind of assay: Anti-arrhythmic effect, Block's method (chloroform-induced, ventricular heart beat rate by electrocardiogram). The note with it: Mus musculus, ip, read-out: ED50 % (effective = heart beat rate in the ventricle reduced to less than 400 beats/minute). In kind it is in vivo, mice (ICR strain).
Procedure: Test procedures: (Block's method)
Onto a 2 liter desiccator were placed 150 ml of chloroform and this was stirred with a magnetic stirrer while being heating by an incandescent lamp. When the desiccator was saturated with chloroform gas, mice (ICR strain, body weight between 20 and 25 g) were placed therein for 2 minutes and then the chest was opened. Silver dipolar electrodes were contacted with the ventricles and electrocardiograms were taken for 1 minute. Within 10-20 minutes, the test compound was administered intraperitoneally in a carboxymethyl-cellulose solution as vehicle.
Consider `CCC[C@@]12CCC[C@H]3[C@H](N)Cc4c(n(c5ccccc45)C(=O)C1)[C@H]32` (relative stereo) [Compound No. 96], for which the ED50 amounted to 3.6 mg/kg.
On the same count and under the same terms, for `CC[C@@]12CCC[C@H]3[C@H](N)Cc4c(n(c5ccccc45)C(=O)C1)[C@H]32` (relative stereo) [Compound No. 110] the value was 14 mg/kg.
On the same count and under the same terms, for `CC[C@]12CCC[C@@H]3[C@H]1c1c(c4cc(O)ccc4n1C(=O)C2)C[C@H]3C(=O)NNCCN1CCCC1` (relative stereo) [Compound No. 146, 7-Hydroxy-12aβ-ethyl-4β-{3-[2-(1-pyrrolidinyl)ethyl]carbazoyl}-2,3,3aβ,4α,5,12,12aβ,12bβ-octahydrobenzo[d,e]indolo[3,2,1-i,j]quinolin-11(1H)-one hemihydrate] the value was 22.5 mg/kg.
Same read-out and setting: in the case of `N[C@@H]1Cc2c3n(c4ccc(O)cc24)C(=O)C[C@@]2(c4ccccc4)CCC[C@@H]1[C@@H]32` (relative stereo) [Compound No. 162] it was 12 mg/kg; in that of `CC[C@@]12CCC[C@H]3[C@H](N)Cc4c(n(c5ccc(O)cc45)C(=O)C1)[C@H]32` (relative stereo) [Compound No. 197, 4β-Amino-12aβ-ethyl-7-hydroxy-2,3,3aβ,4α,5,12,12aβ,12bβ-octahydrobenzo[d,e]indolo[3,2,1-i,j]quinolin-11(1H)-one hemihydrate], 22.5 mg/kg.
In the case of `CCC[C@@]12CCC[C@H]3[C@H](N)Cc4c(n(c5ccc(O)cc45)C(=O)C1)[C@H]32` (relative stereo) [Compound No. 198], the ED50 is 4.2 mg/kg.

The next assay deals with arrhythmias induced by ischemic cardiac dysfunction caused by ligation of the coronary arteries of a perfusing heart. Kind of assay: Anti-arrhythmic effect: protection against arrhythmias induced by ischemia (coronary artery ligation and re-perfusion) of a perfusing heart, method of Opie et al. The note with it: Rattus norvegicus, read-out: ED70 (concentration required for 70% suppression of the arrhythmias during ligation and after re-perfusion). Also on record: species or system male rats of Sprague-Dawley strain. The method, then: The test was performed according to the method of L. H. Opie et al [Cardiovascular Research, 12, 212 (1978)] using male rats of Sprague-Dawley strain weighing between 230 and 330 g. The antiarrhythmic effect was estimated by the ability of the test compound administered intravascularly to protect against the arrhythmias induced by ischemic cardiac dysfunction caused by ligation of the coronary arteries of a perfusing heart.
The test compounds were dissolved in dimethyl sulfoxide, and the required amount of injectible solution was prepared by mixing this with Krebs-Henseleit solution. The degree of protecting effect is reported as the concentration (ED70) required for 70% suppression of the arrhythmias during ligation and after re-perfusion.
For `COC(=O)[C@@H]1Cc2c3n(c4ccccc24)C(=O)C[C@H]2CC[C@@H]1[C@@H]32` (relative stereo) [Compound No. 35, Methyl 1,2,2aβ,3α,4,11,11aβ,11bβ-octahydro-10-oxo-10H-cyclopenta[d,e]indolo[3,2,1-i,j]quinoline-3β-carboxylate], the EC70 stood at 4.2 µg/mL (≈ 13.6 µM).

Still in this assay, the particulars now being: rat perfusing heart, test compound administered intravascularly; read-out: ED70 (concentration required for 70% suppression of the arrhythmias during ligation and after re-perfusion).
Take `C[C@@]12C3=C[C@@H](N)[C@@H]4CC[C@H](CC(=O)N1c1ccccc13)[C@@H]42` (relative stereo) [Compound No. 26, 3β-Amino-1,2,2aβ,3α,11,11aβ,11bβ,11cα-octahydro-11cα-methylcyclopenta[d,e]indolo[3,2,1-i,j]quinolin-10-one hydrochloride]: the EC70 stood at 0.9 µg/mL.
Same read-out and setting: in the case of `N[C@@H]1Cc2c3n(c4ccccc24)C(=O)C[C@H]2CC[C@@H]1[C@@H]32` (relative stereo) [Compound No. 55, 3β-Amino-1,2,2aβ,3α,4,11,11aβ,11bβ-octahydrocyclopenta[d,e]indolo[3,2,1-i,j]quinolin-10-one maleate] it was 0.64 µg/mL; in that of `CC[C@@]12CC[C@H]3[C@H](N)Cc4c(n(c5ccccc45)C(=O)C1)[C@H]32` (relative stereo) [Compound No. 59], 0.23 µg/mL (≈ 0.781 µM).
On the same count and under the same terms, in the case of `CN(C)[C@@H]1Cc2c3n(c4ccccc24)C(=O)C[C@H]2CC[C@@H]1[C@@H]32` (relative stereo) [Compound No. 65, 1,2,2aβ,3α,4,11,11aβ,11bβ-Octahydro-3β-dimethylaminocyclopenta[d,e]indolo[3,2,1-i,j]quinolin-10-one maleate] it was 0.3 µg/mL.
On the same count and under the same terms, for `N[C@@H]1Cc2c3n(c4ccccc24)C(=O)C[C@H]2CCC[C@@H]1[C@@H]32` (relative stereo) [Compound No. 106, 4β-amino-2,3,3aβ,4α,5,12,12aβ,12bβ-octahydrobenzo[d,e]indolo[3,2,1-i,j]quinolin-11(1H)-one maleate] the value was 1 µg/mL; for `CC[C@@]12CCC[C@H]3[C@H](N)Cc4c(n(c5ccccc45)C(=O)C1)[C@H]32` (relative stereo) [Compound No. 110], 0.16 µg/mL (≈ 0.519 µM); for `N[C@@H]1Cc2c3n(c4ccccc24)C(=O)C[C@H]2CCCC[C@@H]1[C@@H]32` (relative stereo) [Compound No. 228], 0.9 µg/mL (≈ 3.06 µM).
Regarding `CC(C)N(CCC(C(N)=O)(c1ccccc1)c1ccccn1)C(C)C` (centres unmarked) [Disopyramide, reference compound], the EC70 was found to be 10 µg/mL (≈ 29.5 µM).
The same measure, in the same setting: for `CCN(CC)CC(=O)Nc1c(C)cccc1C` [Lidocaine, reference compound] the value was 5 µg/mL (≈ 21.3 µM).

Another assay has as its system male mice of the DDY strain. Kind of assay: Diuretic effect: urine volume and sodium ion concentration by the filter paper method (Mineshita et al). In kind it is in vivo. The note with it: 100 mg/kg p.o. The method, then:
The diuretic test was performed on groups of 5 male mice of the DDY strain, each weighing between 26 and 30 g. The test solutions were prepared by dissolving the test compounds in physiological saline containing 0.3% w/v carboxymethylcellulose and were administered orally to the animals. The urine volume and sodium ion concentration were estimated by the filter paper method [Mineshita et al: Pharmacometrics, 4, 33 (1970)]. In Table 13, the increase of the urine volume and sodium ion concentration are shown as a percentage of the values of a control group to which no active compound was administered.
For the compound `O=C(O)[C@@H]1C=C2c3ccccc3N3C(=O)C[C@H]4CC[C@@H]1[C@H]4[C@H]23` (relative stereo) [Compound No. 14, 1,2,2aβ,3α,11,11aβ,11bβ,11cα-Octahydro-10-oxo-10H-cyclopenta[d,e]indolo[3,2,1-i,j]quinoline-3α-carboxylic acid], the “Urine Volume (increase as a percentage of the values of a control group)” value is listed as 231% and the “δNa^+ (increase of sodium ion concentration as a percentage of the values of a control group)” value was found to be 245%.
The like results for `O=C(O)[C@@H]1C=C2c3cc(Br)ccc3N3C(=O)C[C@H]4CC[C@@H]1[C@H]4[C@H]23` (relative stereo) [Compound No. 18] were, in that order, 86% and 168%.
